{"source": "patent US4426377A", "about": "“Clavulanic acid derivatives their preparation and use” (Beecham Group Limited, priority 1977, dated 1984)", "key": {"[1]": {"assay": "signs of drug toxicity during the in-vivo tests", "conditions": "during the in-vivo tests in mice", "procedure": "(§1) a. Sub-cutanvenous administration: Groups of mice were infected inter peritoneally with Escherichia coli JT39. At 1 and 5 hours post infection the mice were treated with amoxycillin (Amox.) or with amoxycillin and synergist. The solutions were made up in phosphate buffer. The results were as follows:\n(§2) b. Oral administration: Groups of mice were infected inter peritoneally with Escherichia coli JT39. At 1, 3 and 5 hours post-infection the mice were treated with amoxycillin or with amoxycillin and synergist. The solutions were made up in phosphate buffer."}, "[2]": {"tested_on": "gram negative bacteria such as Escherichia and Klebsiella and gram positive bacteria such as Staphylococcus", "assay": "summary of synergism with penicillins", "conditions": "against gram negative and gram positive bacteria", "procedure": "as §1, §2"}, "Escherichia coli JT 39": {"tested_on": "Escherichia coli JT 39", "assay": "CD50 in intraperitoneal Escherichia coli JT 39 infection in mice, sub-cutaneous dosing (Demonstration 2)", "type": "in vivo, mice infected with Escherichia coli", "conditions": "with amoxycillin, E. coli JT 39 infection in mice", "procedure": "b. […] Dosing was sub-cutaneous and 1 and 5 hours post infection."}, "Staph. Russell": {"tested_on": "Staph. Russell", "assay": "microliter MIC test, Staph. Russell", "type": "cell-based, Staphylococcus", "procedure": "(§3) a. The antibacterial and synergistic activity of the title compound (referred to as \"Synergist\" in the Table) was determined by a conventional microliter method."}, "Proteus C 889": {"tested_on": "Proteus C 889", "assay": "microliter MIC test, Proteus C 889", "type": "cell-based", "conditions": "for MIC of ampicillin with title compound: trailing end point", "procedure": "as §3"}, "E. Coli JT 410": {"tested_on": "E. Coli JT 410", "assay": "microliter MIC test, E. coli JT 410", "type": "cell-based, Escherichia coli", "procedure": "as §3"}, "Kleb. E 70": {"tested_on": "Kleb. E 70", "assay": "microliter MIC test, Kleb. E 70", "type": "cell-based, Klebsiella", "procedure": "as §3"}}, "data": [{"smiles": "O=C1CC(OC/C=C2\\O[C@@H]3CC(=O)N3[C@H]2C(=O)O)N1", "note": "(some centres unmarked) [Example 2, Sodium 9-O-(azetidin-2'-on-4'-yl)clavulanate]", "values": [{"measurement": "signs of drug toxicity", "setting": "[1]", "value": "No signs of drug toxicity were observed"}, {"measurement": "synergism with penicillins such as amoxycillin", "setting": "[2]", "value": "effective synergist for penicillins such as amoxycillin against gram negative bacteria such as Escherichia and Klebsiella and gram positive bacteria such as Staphylococcus"}]}, {"smiles": "CC(NC=O)OC/C=C1\\O[C@@H]2CC(=O)N2[C@H]1C(=O)O", "note": "(some centres unmarked) [Example 9, Lithium 9-O-(1-formamidoethyl)clavulanate]", "values": [{"measurement": "effect on the effectiveness of amoxycillin", "setting": "Escherichia coli JT 39", "value": "found to enhance the effectiveness of amoxycillin"}]}, {"smiles": "NCC(=O)NCOCC=C1OC2CC(=O)N2C1C(=O)O", "note": "(centres unmarked) [Example 11, 9-O-(Glycylaminomethyl)clavulanic acid]", "values": [{"measurement": "MIC of ampicillin with title compound/synergist", "setting": "Staph. Russell; Amp. + 1 μg/ml of the compound", "value": 1.25, "unit": "µg/mL"}, {"measurement": "MIC of ampicillin with title compound/synergist", "setting": "Staph. Russell; Amp. + 5 μg/ml of the compound", "value": 0.15, "unit": "µg/mL"}, {"measurement": "MIC", "setting": "Staph. Russell; alone", "value": 8, "unit": "µg/mL"}, {"measurement": "MIC of ampicillin with title compound", "setting": "Proteus C 889; Amp. + 1 μg/ml of the compound", "value": 8, "unit": "µg/mL"}, {"measurement": "MIC of ampicillin with title compound", "setting": "Proteus C 889; Amp. + 5 μg/ml of the compound", "value": 2, "unit": "µg/mL"}, {"measurement": "MIC", "setting": "Proteus C 889; alone", "value": 250, "unit": "µg/mL"}, {"measurement": "MIC of ampicillin with title compound/synergist", "setting": "E. Coli JT 410; Amp. + 5 μg/ml of the compound", "value": 62.5, "unit": "µg/mL"}, {"measurement": "MIC", "setting": "E. Coli JT 410; alone", "value": 62.5, "unit": "µg/mL"}, {"measurement": "MIC of ampicillin with title compound/synergist", "setting": "Kleb. E 70; Amp. + 1 μg/ml of the compound", "value": 6.25, "unit": "µg/mL"}, {"measurement": "MIC of ampicillin with title compound/synergist", "setting": "Kleb. E 70; Amp. + 5 μg/ml of the compound", "value": 1.5, "unit": "µg/mL"}, {"measurement": "MIC", "setting": "Kleb. E 70; alone", "value": 62.5, "unit": "µg/mL"}]}]}
